Series [1] has as its target CB1 receptor (Homo sapiens, UniProt P21554). The following applies: Meschler et al. 2000; cited from earlier work.
Series [2] addresses T1, human cannabinoid CB1 receptor (Homo sapiens, UniProt P21554). Description: Cannabinoid CB1 antagonistic activity, forskolin-induced cAMP accumulation in CHO cells. It is filed as cell-based. Further details: expressed in transfected cells; host or cells: CHO cells. As to conditions: antagonism of CB1 agonist (e.g. CP-55,940 or (R)-WIN-55,212-2) effect on forskolin-induced cAMP accumulation, CHO cells expressing human CB1; for Kb: read-out: hCB1 pA2 (converted). As for the experimental part:
The cannabinoid CB1 antagonistic activity of compounds of the invention was determined by functional studies using CHO cells in which human cannabinoid CB1 receptors were stably expressed. Adenylyl cyclase was stimulated using forskolin and measured by quantifying the amount of accumulated cyclic AMP. Concomitant activation of CB1 receptors by CB1 receptor agonists (e.g. CP-55,940 or (R)-WIN-55,212–2) can attenuate the forskolin-induced accumulation of cAMP in a concentration-dependent manner. This CB1 receptor-mediated response can be antagonized by CB1 receptor antagonists such as the compounds of the invention.

Series [3] deals with T1, human cannabinoid CB1 receptor. Description: biochemical. It is filed as binding. Also on record: expressed in transfected cells; host or cells: Chinese hamster ovary (CHO) cells, membrane preparation. The following applies: hCB1 pKi, [3H]CP-55,940 radioligand; CHO cell membranes stably transfected with human CB1. The procedure: After incubation of a freshly prepared cell membrane preparation with the [^3H]-ligand, with or without addition of compounds of the invention, separation of bound and free ligand was performed by filtration over glassfiber filters. Radioactivity on the filter was measured by liquid scintillation counting.

T1 sequence (P21554 whole entry): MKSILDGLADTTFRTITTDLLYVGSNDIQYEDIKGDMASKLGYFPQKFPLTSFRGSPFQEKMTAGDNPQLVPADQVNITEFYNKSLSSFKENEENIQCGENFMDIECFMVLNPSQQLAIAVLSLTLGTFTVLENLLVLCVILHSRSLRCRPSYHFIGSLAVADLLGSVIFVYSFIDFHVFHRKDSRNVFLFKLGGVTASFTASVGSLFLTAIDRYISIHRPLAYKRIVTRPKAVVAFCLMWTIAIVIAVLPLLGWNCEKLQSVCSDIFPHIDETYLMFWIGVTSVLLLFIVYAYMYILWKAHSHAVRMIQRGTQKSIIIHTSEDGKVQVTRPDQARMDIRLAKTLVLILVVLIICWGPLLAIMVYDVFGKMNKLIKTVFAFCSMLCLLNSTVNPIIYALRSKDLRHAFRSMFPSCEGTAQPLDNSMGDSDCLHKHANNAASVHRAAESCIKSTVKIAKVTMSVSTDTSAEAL
CB1 receptor, sequence (P21554 whole entry): as above

Turning to `COc1ccc(-c2c(C#N)c(C(=O)Nc3ccccc3)nn2-c2ccccc2Cl)cc1` [CP-272871], in series [1], the “CB1 receptor subtype selectivity compared with SR141716A” value is “less CB1 receptor subtype-selective” and the “potency compared with SR141716A” value was “less potent”.

Regarding `COc1ccc(-n2c(-c3ccc(Cl)cc3Cl)nc(C(=O)NN3CCCCC3)c2C)cc1` [Example 63, 2-(2,4-Dichlorophenyl)-5-methyl-1-(4-methoxyphenyl)-N-(piperidin-1-yl)-1H-imidazole-4-carboxamide], the melting point is > 90 °C (dec.). Further, the Kb in series [2] is 1 nM. In series [3], the Ki is 79.4 nM.

As to `Cc1c(C(=O)NN2CC3CCCC3C2)nc(-c2ccc(Cl)cc2Cl)n1-c1ccc(Cl)cc1` (centres unmarked) [Example 81, 1-(4-Chlorophenyl)-2-(2,4-dichlorophenyl)-N-(hexahydrocyclopenta-[c]pyrrol-2(1H)-yl)-5-methyl-1H-imidazole-4-carboxamide], the melting point lay in the range of 143 to 146 °C. Besides, the “hCB1 pA2” value in series [2] stood at 9.8. For the same molecule, the affinity in series [3], expressed as Ki, was 31.6 nM.

Regarding `Cc1c(C(=O)NC2CC3CCC2C3)nc(-c2ccc(Cl)cc2Cl)n1-c1ccc(Cl)cc1` (stereo not drawn) [Example 84, N-(Exo-bicyclo[2.2.1]hept-2-yl)-1-(4-chlorophenyl)-2-(2,4-dichlorophenyl)-5-methyl-1H-imidazole-4-carboxamide], the melting point fell in the range of 194 to 195 °C. Besides, in series [2], the Kb was 1.26 nM. In addition, the Ki in series [3] is 15.8 nM.

With `Cc1c(C(=O)N[C@H]2CC[C@H](O)CC2)nc(-c2ccc(Cl)cc2Cl)n1-c1ccc(Cl)cc1` [Example 86, 1-(4-Chlorophenyl)-2-(2,4-dichlorophenyl)-N-(trans-4-hydroxycyclohexyl)-5-methyl-1H-imidazole-4-carboxamide], the melting point is 160 °C (dec.). For the same molecule, the Kb in series [2] is 15.8 nM. The molecule further showed an inhibition constant (Ki) in series [3] of 126 nM.

`Cc1c(C(=O)NN2CCCCCC2)nc(-c2ccc(Cl)cc2Cl)n1-c1ccc(Cl)cc1` [Example 92, N-(Azepan-1-yl)-1-(4-chlorophenyl)-2-(2,4-dichlorophenyl)-5-methyl-1H-imidazole-4-carboxamide] registered a melting point of 147 to 149 °C. The Kb in series [2] is 1.58 nM. The molecule further showed a Ki in series [3] of 63.1 nM.

In turn, `Cc1c(C(=O)NN2CCCC2)nc(-c2ccc(Cl)cc2Cl)n1-c1ccc(Cl)cc1` [Example 93, 1-(4-Chlorophenyl)-2-(2,4-dichlorophenyl)-5-methyl-N-(pyrrolidin-1-yl)-1H-imidazole-4-carboxamide] yielded a melting point of 205 to 206 °C. Further, in series [2], the “hCB1 pA2” value stood at 8.2. The same molecule gave an inhibitory constant (Ki) in series [3] of 20 nM.

For the molecule `Cc1c(C(=O)NN2CCOCC2)nc(-c2ccc(Cl)cc2Cl)n1-c1ccc(Cl)cc1` [Example 94, 1-(4-Chlorophenyl)-2-(2,4-dichlorophenyl)-5-methyl-N-(morpholin-4-yl)-1H-imidazole-4-carboxamide], the melting point is 225 °C (dec.). Besides, the “hCB1 pA2” value in series [2] is given as 7.5. Further, affinity in series [3] was put at a Ki of 100 nM.

Consider `Cc1c(C(=O)NCc2ccc(C(F)(F)F)cc2)nc(-c2ccc(Cl)cc2Cl)n1-c1ccc(Cl)cc1` [Example 106, 1-(4-Chlorophenyl)-2-(2,4-dichlorophenyl)-5-methyl-N-(4-(trifluoromethyl)benzyl)-1H-imidazole-4-carboxamide], for which the melting point was 232 °C. Moreover, the “hCB1 pA2” value in series [2] is listed as 8.9. For the same molecule, the Ki in series [3] is 100 nM.

The molecule `Cc1c(C(=O)NC2CCCC2)nc(-c2ccc(Cl)cc2Cl)n1-c1ccc(Cl)cc1` [Example 107, 1-(4-Chlorophenyl)-N-cyclopentyl-2-(2,4-dichlorophenyl)-5-methyl-1H-imidazole-4-carboxamide] displayed a melting point of 172 °C. Moreover, the “hCB1 pA2” value in series [2] was 8.9. For the same molecule, in series [3], the inhibition constant Ki is 158 nM.

In the case of `Cc1c(C(=O)NC2CCCCCC2)nc(-c2ccc(Cl)cc2Cl)n1-c1ccc(Cl)cc1` [Example 108, 1-(4-Chlorophenyl)-N-cycloheptyl-2-(2,4-dichlorophenyl)-5-methyl-1H-imidazole-4-carboxamide], the melting point lay in the range of 154 to 156 °C. For the same molecule, the “hCB1 pA2” value in series [2] is reported as 9.1. This molecule also gave a Ki in series [3] of 7.94 nM.

`O=C(NN1CCCCC1)c1nc(-c2ccc(Cl)cc2Cl)n(-c2ccc(Cl)cc2)c1I` [Example 111, 1-(4-Chlorophenyl)-2-(2,4-dichlorophenyl)-5-iodo-N-(piperidin-1-yl)-1H-imidazole-4-carboxamide] showed a melting point of 196 to 201 °C. In series [2], the Kb is 2.51 nM. This molecule showed a Ki in series [3] of 6.31 nM.

Consider `O=C(NN1CCCCC1)c1nc(-c2ccc(Cl)cc2Cl)n(-c2ccc(Cl)cc2)c1Br` [Example 117, 1-(4-chlorophenyl)-2-(2,4-dichlorophenyl)-5-bromo-N-(piperidin-1-yl)-1H-imidazole-4-carboxamide], for which the melting point is 181.5 to 183 °C. For the same molecule, in series [2], the Kb was 2.51 nM. Moreover, the affinity in series [3] corresponds to a Ki of 10 nM.

As to `CS(=O)(=O)c1c(C(=O)NN2CCCCC2)nc(-c2ccc(Cl)cc2Cl)n1-c1ccc(Cl)cc1` [Example 118, 1-(4-Chlorophenyl)-2-(2,4-dichlorophenyl)-5-methylsulfonyl-N-(piperidin-1-yl)-1H-imidazole-4-carboxamide], the melting point was 181 to 185 °C (dec.). In addition, in series [2], the “hCB1 pA2” value was found to be 8.5. The affinity in series [3], expressed as Ki, was 15.8 nM.

For `CSc1c(C(=O)NN2CCCCC2)nc(-c2ccc(Cl)cc2Cl)n1-c1ccc(Cl)cc1` [Example 120, 1-(4-Chlorophenyl)-2-(2,4-dichlorophenyl)-5-methylsulfanyl-N-(piperidin-1-yl)-1H-imidazole-4-carboxamide], the melting point was 170 °C (dec.). Besides, in series [2], the Kb is 0.631 nM. This molecule gave an inhibitory constant (Ki) in series [3] of 12.6 nM.
